Test results taken from US20240269139A1, “COMPOUNDS FOR TARGETED PROTEIN DEGRADATION OF KINASES” (DANA-FARBER CANCER INSTITUTE, INC., priority 2020, published 2024).
Read-outs that look alike come from different tables or passages of the source.

How the values were obtained:
[1] = target: T1, extended human kinome (kinase-like proteins) (Homo sapiens, UniProt Q7L8L6); experiment: Whole cell quantitative proteomics: extended kinome hits; details: Accession Q7L8L6
T1 sequence (Q7L8L6 28-764): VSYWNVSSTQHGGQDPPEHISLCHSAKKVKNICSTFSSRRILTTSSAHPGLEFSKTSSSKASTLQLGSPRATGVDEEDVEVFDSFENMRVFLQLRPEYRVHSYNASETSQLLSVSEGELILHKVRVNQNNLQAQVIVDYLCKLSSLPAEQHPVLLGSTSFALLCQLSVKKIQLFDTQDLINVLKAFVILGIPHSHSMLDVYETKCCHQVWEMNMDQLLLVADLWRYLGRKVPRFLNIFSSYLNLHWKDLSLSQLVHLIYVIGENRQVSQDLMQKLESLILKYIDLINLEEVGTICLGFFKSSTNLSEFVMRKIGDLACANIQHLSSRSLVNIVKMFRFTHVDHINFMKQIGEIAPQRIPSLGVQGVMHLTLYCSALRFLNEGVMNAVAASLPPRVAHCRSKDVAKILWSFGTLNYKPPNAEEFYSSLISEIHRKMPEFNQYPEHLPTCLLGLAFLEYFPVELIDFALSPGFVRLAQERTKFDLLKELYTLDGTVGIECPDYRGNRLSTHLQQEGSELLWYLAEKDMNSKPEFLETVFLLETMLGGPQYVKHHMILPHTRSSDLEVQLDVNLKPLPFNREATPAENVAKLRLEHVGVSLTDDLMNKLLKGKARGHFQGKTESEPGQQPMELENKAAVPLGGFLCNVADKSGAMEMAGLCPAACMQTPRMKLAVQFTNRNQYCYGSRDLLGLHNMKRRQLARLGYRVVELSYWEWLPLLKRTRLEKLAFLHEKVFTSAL

[2] = target: T2, extended human kinome (kinase-like proteins) (Homo sapiens, UniProt Q53R41); experiment: as above
T2 sequence (Q53R41 1-847): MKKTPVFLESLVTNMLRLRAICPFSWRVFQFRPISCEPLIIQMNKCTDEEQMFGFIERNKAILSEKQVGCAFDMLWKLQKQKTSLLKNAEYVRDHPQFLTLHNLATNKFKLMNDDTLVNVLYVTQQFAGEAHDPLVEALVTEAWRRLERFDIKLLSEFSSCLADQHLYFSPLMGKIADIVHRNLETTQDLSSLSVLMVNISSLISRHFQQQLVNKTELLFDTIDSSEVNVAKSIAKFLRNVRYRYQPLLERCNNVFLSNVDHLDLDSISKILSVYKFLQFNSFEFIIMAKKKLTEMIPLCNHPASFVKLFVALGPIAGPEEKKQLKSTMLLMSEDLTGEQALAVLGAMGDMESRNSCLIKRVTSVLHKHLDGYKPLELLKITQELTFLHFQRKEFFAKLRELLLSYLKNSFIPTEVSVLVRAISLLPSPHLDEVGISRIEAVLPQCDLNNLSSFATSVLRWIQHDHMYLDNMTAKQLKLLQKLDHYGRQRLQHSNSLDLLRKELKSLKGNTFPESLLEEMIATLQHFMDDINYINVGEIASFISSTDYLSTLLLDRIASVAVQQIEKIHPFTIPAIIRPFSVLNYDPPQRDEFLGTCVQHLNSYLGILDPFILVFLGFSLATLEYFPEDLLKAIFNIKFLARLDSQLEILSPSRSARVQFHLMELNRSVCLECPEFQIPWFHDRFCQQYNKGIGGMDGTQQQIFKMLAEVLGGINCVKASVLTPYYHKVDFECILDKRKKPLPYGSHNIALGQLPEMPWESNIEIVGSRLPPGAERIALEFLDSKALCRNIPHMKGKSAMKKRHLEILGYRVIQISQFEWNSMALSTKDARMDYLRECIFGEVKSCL

[3] = target: extended human kinome (kinase-like proteins) (Homo sapiens, UniProt P27144); experiment: as above
extended human kinome (kinase-like proteins) (Homo sapiens, UniProt P27144), sequence (P27144 whole entry): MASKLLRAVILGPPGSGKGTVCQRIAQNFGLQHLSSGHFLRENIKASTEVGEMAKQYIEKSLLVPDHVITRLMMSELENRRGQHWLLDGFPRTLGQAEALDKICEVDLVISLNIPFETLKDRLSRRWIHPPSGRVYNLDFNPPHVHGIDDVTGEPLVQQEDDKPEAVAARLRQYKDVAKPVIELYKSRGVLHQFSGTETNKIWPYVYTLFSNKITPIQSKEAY

[4] = target: extended human kinome (kinase-like proteins) (Homo sapiens, UniProt Q9UIJ7); experiment: as above
extended human kinome (kinase-like proteins) (Homo sapiens, UniProt Q9UIJ7), sequence (Q9UIJ7 whole entry): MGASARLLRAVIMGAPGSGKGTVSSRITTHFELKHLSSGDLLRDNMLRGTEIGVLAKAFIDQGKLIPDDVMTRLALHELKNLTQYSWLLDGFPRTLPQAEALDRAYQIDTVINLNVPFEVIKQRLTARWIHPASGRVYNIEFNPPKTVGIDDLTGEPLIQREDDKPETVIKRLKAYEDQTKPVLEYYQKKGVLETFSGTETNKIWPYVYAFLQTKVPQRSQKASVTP

[5] = target: extended human kinome (kinase-like proteins) (Homo sapiens, UniProt Q16875); experiment: as above; details: Accession Q16875
extended human kinome (kinase-like proteins) (Homo sapiens, UniProt Q16875), sequence (Q16875 whole entry): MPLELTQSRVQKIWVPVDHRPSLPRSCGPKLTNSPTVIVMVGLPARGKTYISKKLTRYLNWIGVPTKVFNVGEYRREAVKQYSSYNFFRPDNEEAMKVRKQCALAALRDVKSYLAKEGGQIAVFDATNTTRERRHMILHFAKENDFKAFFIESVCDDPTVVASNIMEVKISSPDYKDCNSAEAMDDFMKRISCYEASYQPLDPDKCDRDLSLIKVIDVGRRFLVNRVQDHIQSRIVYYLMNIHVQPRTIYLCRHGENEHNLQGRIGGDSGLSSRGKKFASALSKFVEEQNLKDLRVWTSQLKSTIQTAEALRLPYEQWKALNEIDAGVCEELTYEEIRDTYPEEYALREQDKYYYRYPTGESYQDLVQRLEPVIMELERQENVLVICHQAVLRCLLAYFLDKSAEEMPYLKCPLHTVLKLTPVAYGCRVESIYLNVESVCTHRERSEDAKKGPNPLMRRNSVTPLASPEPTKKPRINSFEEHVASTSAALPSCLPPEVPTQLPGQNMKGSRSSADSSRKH

[6] = target: protein kinases (human kinome) (Homo sapiens, UniProt P12931); format: cell-based; details: for logFC of SRC: Accession P12931; for logFC: SRC (P12931), direction down
protein kinases (human kinome), sequence (P12931 whole entry): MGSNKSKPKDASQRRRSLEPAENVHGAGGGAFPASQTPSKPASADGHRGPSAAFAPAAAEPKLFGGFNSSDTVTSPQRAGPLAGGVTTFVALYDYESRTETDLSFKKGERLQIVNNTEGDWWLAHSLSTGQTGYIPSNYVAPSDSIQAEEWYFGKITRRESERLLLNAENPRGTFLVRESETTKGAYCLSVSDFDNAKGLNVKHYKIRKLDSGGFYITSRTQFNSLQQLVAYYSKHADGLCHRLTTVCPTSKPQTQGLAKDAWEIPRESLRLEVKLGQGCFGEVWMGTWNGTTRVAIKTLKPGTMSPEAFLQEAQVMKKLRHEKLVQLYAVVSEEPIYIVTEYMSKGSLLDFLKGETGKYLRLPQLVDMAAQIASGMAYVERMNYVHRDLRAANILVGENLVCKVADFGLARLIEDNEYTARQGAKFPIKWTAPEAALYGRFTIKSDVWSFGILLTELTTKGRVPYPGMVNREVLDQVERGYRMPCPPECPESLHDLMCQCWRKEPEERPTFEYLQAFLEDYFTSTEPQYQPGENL

## CC(=O)c1c(C)c2cnc(Nc3ccc(N4CCN(CCOCCOCCOCCNC(=O)COc5cccc6c5C(=O)N(C5CCC(=O)NC5=O)C6=O)CC4)cn3)nc2n(C2CCCC2)c1=O (stereo not shown) [BSJ.03.123]
[1]; experiment wp084
  logFC FASTKD5: −0.5926
[2]; experiment wp084
  logFC FASTKD1 (Q53R41): −0.5242
[3]; experiment wp084
  logFC AK4 (P27144): −0.5103
[4]; experiment wp084
  logFC AK3 (Q9UIJ7-1): −0.4577

## CN(C)C(=O)c1cc2cnc(Nc3ccc(N4CCN(CCCCNC(=O)COc5cccc6c5C(=O)N(C5CCC(=O)NC5=O)C6=O)CC4)cn3)nc2n1C1CCCC1 (stereo not shown) [BSJ.04.132]
[1]; experiment wp084
  logFC FASTKD5: −0.7073
[2]; experiment wp084
  logFC FASTKD1 (Q53R41): −0.6747
[3]; experiment wp084
  logFC AK4 (P27144): −0.6551
[4]; experiment wp084
  logFC AK3 (Q9UIJ7-1): −0.6124

## Cc1ccc(NC(=O)c2cccc(C(F)(F)F)c2)cc1N1Cc2cnc(Nc3ccc(N4CCN(Cc5cn(CCCCCOc6cccc7c6C(=O)N(C6CCC(=O)NC6=O)C7=O)nn5)CC4)nc3)nc2N(C)C1=O (stereo not shown) [DB0646, N-(3-(7-((6-(4-((1-(5-((2-(2,6-Dioxopiperidin-3-yl)-1,3-dioxoisoindolin-4-yl)oxy)pentyl)-1H-1,2,3-triazol-4-yl)methyl)piperazin-1-v)pyridin-3-yl)amino)-1-methyl-2-oxo-1,4-dihydropyrimido[4,5-d]pyrimidin-3(2H)-yl)-4-methylphenyl)-3-(trifluoromethyl)benzamide]
[5]; experiment wp045
  logFC PFKFB3: −0.5182
[5]; experiment wp160, 8 hr
  logFC PFKFB3: −0.3754
[6]; experiment wp152
  logFC of SRC: −0.3941
  logFC: −0.3941
[6]; experiment wp160, 4 hr
  logFC of SRC: −0.5186
  logFC: −0.5186
[6]; experiment wp160, 8 hr
  logFC of SRC: −0.6833
  logFC: −0.6833

## Cc1ccc(NC(=O)c2cccc(C(F)(F)F)c2)cc1N1Cc2cnc(Nc3ccc(N4CCN(CCCOc5cccc6c5C(=O)N(C5CCC(=O)NC5=O)C6=O)CC4)nc3)nc2N(C)C1=O (stereo not shown) [DB0662]
[5]; experiment wp168
  logFC PFKFB3: −0.4517
[6]; experiment wp168
  logFC of SRC: −0.9018
[6]; Experiment wp168
  logFC of SRC (P12931): −0.9018

## Cc1ccc(NC(=O)c2cccc(C(F)(F)F)c2)cc1N1Cc2cnc(Nc3ccc(N4CCN(CCCCCCOc5cccc6c5C(=O)N(C5CCC(=O)NC5=O)C6=O)CC4)nc3)nc2N(C)C1=O (stereo not shown) [DB0663]
[5]; experiment wp045
  logFC PFKFB3: −0.4221

## Cc1ccc(NC(=O)c2cccc(C(F)(F)F)c2)cc1N1Cc2cnc(Nc3ccc(N4CCN(CCCCC(=O)N[C@H](C(=O)N5C[C@H](O)C[C@H]5C(=O)N[C@@H](C)c5ccc(-c6scnc6C)cc5)C(C)(C)C)CC4)nc3)nc2N(C)C1=O [DB1113]
[5]; experiment wp168
  logFC PFKFB3: −0.3724

## CC(C)(C)c1nc(-c2cccc(NS(=O)(=O)c3c(F)cccc3F)c2F)c(-c2ccnc(NCCOCCNC(=O)CCOCCOCCNc3cccc4c3C(=O)N(C3CCC(=O)NC3=O)C4=O)n2)s1 (stereo not shown) [DD.03.106]
[1]; experiment wp147, 4 uM
  logFC FASTKD5: −0.8688
[2]; experiment wp147, 4 uM
  logFC FASTKD1 (Q53R41): −0.6262
[3]; experiment wp147, 4 uM
  logFC AK4 (P27144): −0.5652
[4]; experiment wp147, 4 uM
  logFC AK3 (Q9UIJ7-1): −0.7202

## CC(C)(C)c1nc(-c2cccc(NS(=O)(=O)c3c(F)cccc3F)c2F)c(-c2ccnc(NCCOCCNC(=O)CCOCCOCCNc3cccc4c3CN(C3CCC(=O)NC3=O)C4=O)n2)s1 (stereo not shown) [DD.03.107]
[1]; experiment wp147, 1 uM
  logFC FASTKD5: −0.5985
[1]; experiment wp147, 2 uM
  logFC FASTKD5: −0.6839
[1]; experiment wp147, 4 uM
  logFC FASTKD5: −1.268
[2]; experiment wp147, 1 uM
  logFC FASTKD1 (Q53R41): −0.58
[2]; experiment wp147, 2 uM
  logFC FASTKD1 (Q53R41): −0.5044
[2]; experiment wp147, 4 uM
  logFC FASTKD1 (Q53R41): −0.9447
[3]; experiment wp137
  logFC AK4 (P27144): −0.3942
[3]; experiment wp147, 1 uM
  logFC AK4 (P27144): −0.3992
[3]; experiment wp147, 2 uM
  logFC AK4 (P27144): −0.4045
[3]; experiment wp147, 4 uM
  logFC AK4 (P27144): −0.898
[4]; experiment wp147, 1 uM
  logFC AK3 (Q9UIJ7-1): −0.5265
[4]; experiment wp147, 2 uM
  logFC AK3 (Q9UIJ7-1): −0.5607
[4]; experiment wp147, 4 uM
  logFC AK3 (Q9UIJ7-1): −1.001

## O=C(COc1cccc2c1C(=O)N(C1CCC(=O)NC1=O)C2=O)NCCCCCCCC(=O)NC1(c2ccc(-c3nc4ccn5c(=O)[nH]nc5c4cc3-c3ccccc3)cc2)CCC1 (stereo not shown) [INY.01.140.1]
[1]; experiment wp081
  logFC FASTKD5: −0.4182
[2]; experiment wp081
  logFC FASTKD1 (Q53R41): −0.4808
[3]; experiment wp081
  logFC AK4 (P27144): −0.4309
[4]; experiment wp081
  logFC AK3 (Q9UIJ7-1): −0.4102

## Cc1cnc(Nc2ccc(N3CCN(CCOCCOCCNC(=O)COc4cccc5c4C(=O)N(C4CCC(=O)NC4=O)C5=O)CC3)cc2)nc1Nc1cccc(S(=O)(=O)NC(C)(C)C)c1 (stereo not shown) [JWG.118]
[3]; experiment wp071
  logFC AK4 (P27144): −0.5314
[4]; experiment wp071
  logFC AK3 (Q9UIJ7-1): −0.4221

## CNC(=O)c1ccccc1Nc1cc(Nc2ccc(N3CCN(CCOCCOCCNC(=O)CNc4cccc5c4C(=O)N(C4CCC(=O)NC4=O)C5=O)CC3)cc2OC)ncc1C(F)(F)F (stereo not shown) [MFH.5.103.1]
[1]; experiment wp076
  logFC FASTKD5: −0.3493
[4]; experiment wp076
  logFC AK3 (Q9UIJ7-1): −0.431

## Cc1ccc(C(=O)Nc2ccc(CN3CCN(CCCOCCOCCOCCNC(=O)COc4cccc5c4C(=O)N(C4CCC(=O)NC4=O)C5=O)CC3)c(C(F)(F)F)c2)cc1C#Cc1cnc2cccnn12 (stereo not shown) [SB1.G.187]
[1]; experiment wp056
  logFC FASTKD5: −0.4238
[2]; Accession Q53R41, experiment wp056
  logFC FASTKD1: −0.4811
[3]; experiment wp056
  logFC AK4 (P27144): −0.4478

## Cn1c(=O)c(-c2c(Cl)cccc2Cl)cc2cnc(Nc3ccc(OCCNC(=O)CCCCCCNC(=O)COc4cccc5c4C(=O)N(C4CCC(=O)NC4=O)C5=O)cc3)nc21 (stereo not shown) [SB1.G.192.1]
[2]; experiment wp081
  logFC FASTKD1 (Q53R41): −0.4222

## CC(C)S(=O)(=O)c1ccccc1Nc1nc(Nc2ccc(N3CCN(CCOCCNC(=O)CNc4cccc5c4C(=O)N(C4CCC(=O)NC4=O)C5=O)CC3)cc2)ncc1Cl (stereo not shown) [SK.3.91]
[5]; experiment wp133, 2 hr
  logFC PFKFB3: −0.3539
[5]; experiment wp133, 4 hr
  logFC PFKFB3: −0.6035
[1]; experiment wp160, 1 hr
  logFC FASTKD5: −0.8306
[2]; experiment wp160, 1 hr
  logFC FASTKD1 (Q53R41): −0.8675
[3]; experiment wp160, 1 hr
  logFC AK4 (P27144): −0.8232
[4]; experiment wp160, 1 hr
  logFC AK3 (Q9UIJ7-1): −0.7434
[6]; experiment wp160, 4 hr
  logFC of SRC: −0.5292
  logFC: −0.5292

## CC(C)S(=O)(=O)c1ccccc1Nc1nc(Nc2ccc(N3CCN(CCOCCOCCNC(=O)CNc4cccc5c4C(=O)N(C4CCC(=O)NC4=O)C5=O)CC3)cc2)ncc1Cl (stereo not shown) [TL12.186]
[5]; experiment wp131
  logFC PFKFB3: −0.5643
[5]; experiment wp137
  logFC PFKFB3: −0.4067
[1]; experiment wp137
  logFC FASTKD5: −0.3409
[2]; experiment wp137
  logFC FASTKD1 (Q53R41): −0.3731

## CC(C)S(=O)(=O)c1ccccc1Nc1nc(Nc2ccc(N3CCN(CCOCCOCCC(=O)NCCNc4cccc5c4CN(C4CCC(=O)NC4=O)C5=O)CC3)cc2)ncc1Cl (stereo not shown) [TL13.97]
[2]; experiment wp137
  logFC FASTKD1 (Q53R41): −0.3684

## C=CCn1c(=O)c2cnc(Nc3ccc(N4CCN(CCCNc5cccc6c5C(=O)N(C5CCC(=O)NC5=O)C6=O)CC4)cc3)nc2n1-c1cccc(C(C)(C)O)n1 (stereo not shown) [ZNL.02.096]
[5]; experiment wp118
  logFC PFKFB3: −0.4051
[1]; experiment wp118
  logFC FASTKD5: −0.4552
[2]; experiment wp056
  logFC FASTKD1 (Q53R41): −0.4079
[2]; experiment wp118
  logFC FASTKD1 (Q53R41): −0.4559
